Experimental data published in patent publication US9329184B2, “Fluorescent probe” (THE UNIVERSITY OF TOKYO, priority 2011, dated 2016).
One block for each molecule: values may come before it.

Assays:
[1] = Absorption and fluorescence spectra and pH profiles in sodium phosphate buffer; assay type: physicochemical; settings: for pH-dependent change of absorbance / λabs / λfl: 0.1 M sodium phosphate buffer containing 1% DMSO; for pH-dependent change of absorbance: pH profile; for λabs / λfl: Table 1
Experimental: (§1) Fluorescence was measured with an excitation wavelength of 593 nm.
Fluorescence was measured with an excitation wavelength of 505 nm.
Fluorescence was measured with an excitation wavelength of 590 nm.
Absorption and fluorescence spectra as well as pH profiles of 2-Me SiR600 and the acetylated compound thereof (N-Ac-2-Me SiR600) synthesized in Example 2 were measured. […] Therefore, 2-Me SiR600 in which the amino group at the 3-position is acylated can be functioned as a fluorescent probe for detecting enzymatic activity on the basis of absorption wavelength change with a high S/N ratio, without using the intramolecular photoinduced electron transfer.
In a similar manner, absorption and fluorescence spectra as well as pH profiles of 2-COOH SiR600 and the acetylated compound thereof were measured. […] Therefore, it can be used as a fluorescent probe as shown in the following scheme.
Absorption spectrum of Z-DEVD-SiR600 was measured in a 0.1 M sodium phosphate buffer of pH 3 to 10 containing 1% DMSO. The measurement results are shown in FIG. 5, and the photochemical characteristics are shown in Table 3 mentioned below together with the results for SiR600.

leucine aminopeptidase = test: Reaction of fluorescent probe with leucine aminopeptidase (absorption/fluorescence before and after); assay type: biochemical; settings: for absorption maximum wavelength: 0.1 M sodium phosphate buffer pH 7.4, 37° C., before/after reaction with leucine aminopeptidase
Experimental: as §1
Function of Leu-SiR600 as a fluorescent probe was evaluated by reacting it with leucine aminopeptidase. Leucine aminopeptidase (0.096 unit) was added to Leu-SiR600 (6 μM), and the mixture was reacted for 2.5 hours. The reaction performed at 37° C. in a 0.1 M sodium phosphate buffer (pH 7.4, 0.75 ml) containing 0.8% DMSO. The absorption spectra and fluorescence spectra observed before and after the reaction are shown in FIG. 7, (b) and (c), respectively.

caspase-3 = test: Reaction of fluorescent probe with caspase-3 (absorption/fluorescence before and after); assay type: biochemical; settings: for absorption maximum wavelength: 20 mM HEPES buffer pH 7.4, 37° C., before/after reaction with caspase-3
Experimental: as §1
Function of Z-DEVD-SiR600 as a fluorescent probe was evaluated by reacting it with caspase-3. Caspase-3 (0.5 μg) was added to Z-DEVD-SiR600 (2 μM), and the mixture was reacted for 10 hours. The reaction was performed at 37° C. in a 20 mM HEPES buffer (pH 7.4, 0.75 ml) containing 100 μM dithiothreitol (DTT), 10% glycerol, 0.1% CHAPS, 100 mM NaCl, and 0.1% DMSO. The absorption spectra and fluorescence spectra observed before and after the reaction (excitation wavelengths are shown in FIG. 6, (b) and (c), respectively, and the kinetics parameters of the reaction are shown in FIG. 6, (d)).

Molecule: C[Si]1(C)c2cc(N)ccc2C2(OC(=O)c3ccccc32)c2ccc(N)cc21 [2-COOH SiR600]
pH-dependent change of absorbance [1]: did not substantially show absorbance change at pH higher than the physiological pH region
ΦFL ([1]; Table 2, pH 7.4): 0.26
ε ([1]; Table 2, pH 7.4): 4000 M⁻¹ cm⁻¹
λem ([1]; Table 2, pH 7.4): 610 nm
λex ([1]; Table 2, pH 7.4): 590 nm

Molecule: CC(=O)Nc1ccc2c(c1)[Si](C)(C)c1cc(N)ccc1C21OC(=O)c2ccccc21 (stereo not drawn) [N-Acetyl-2-COOH SiR600]
absorption for the visible region ([1]; physiological pH range): not to show absorption for the visible region in the physiological pH range

Molecule: Cc1ccccc1C1=C2C=CC(=N)C=C2[Si](C)(C)c2cc(NC(=O)[C@H](N)CC(C)C)ccc21 [Leu-SiR600]
absorption maximum wavelength (leucine aminopeptidase): around 500 nm
fluorescence before and after the reaction with leucine aminopeptidase (leucine aminopeptidase; probe 6 μM, leucine aminopeptidase 0.096 unit, 2.5 hours, 37° C., excitation light 593 nm): scarcely observed before the reaction, but extremely strong fluorescence is observed after the reaction

Molecule: Cc1ccccc1C1=C2C=CC(=N)C=C2[Si](C)(C)c2cc(N)ccc21 [2-Me SiR600]
pH-dependent change of absorbance [1]: did not substantially show pH-dependent change of absorbance
maximum absorption wavelength ([1]; Example 4): 593 nm
λabs [1]: 593 nm
λfl [1]: 613 nm
ΦFL ([1]; Table 3, pH 7.4): 0.38
ε ([1]; Table 3, pH 7.4): 91000 M⁻¹ cm⁻¹
λem ([1]; Table 3, pH 7.4): 613 nm
λex ([1]; Table 3, pH 7.4): 593 nm
absorption maximum wavelength (caspase-3): 593 nm
absorption maximum wavelength (leucine aminopeptidase): 593 nm

pH-dependent change of absorbance [1]: showed pH-dependent absorbance change
ΦFL ([1]; Table 3, pH 3.0): 0.19
ε ([1]; Table 3, pH 3.0): 85000 M⁻¹ cm⁻¹
λem ([1]; Table 3, pH 3.0): 600 nm
λex ([1]; Table 3, pH 3.0): 500 nm
absorption maximum wavelength (caspase-3): around 500 nm
Molecule: Z-DEVD-SiR600
absorption of light around 593 nm ([1]; around the maximum absorption wavelength of SiR600): did not absorb light around the maximum absorption wavelength (593 nm) of SiR600
fluorescence before and after the reaction with caspase-3 (caspase-3; probe 2 μM, caspase-3 0.5 μg, 10 hours, 37° C., excitation light 593 nm): scarcely observed before the reaction, but extremely strong fluorescence is observed after the reaction

Molecule: CC(=O)Nc1ccc2c(c1)[Si](C)(C)C1=CC(=N)C=CC1=C2c1ccccc1C [N-Ac-2-Me SiR600, N-Acetyl-2-Me SiR600]
pH-dependent change of absorbance [1]: decreased with decrease of pH
λabs [1]: 505 nm
λfl [1]: 600 nm
shift of maximum absorption wavelength compared with 2-Me SiR600 ([1]; acetylation of the amino group at the 3-position): significantly shifted to the shorter wavelength side
